Results published in patent US20220088031A1, “METHODS AND COMPOSITIONS FOR TREATING RESISTANT AND RECURRENT FORMS OF CANCER” (Health Research, Inc., priority 2019, published 2022).
“Also recorded” adds a separate entry of the source.

Key:
Assay type in all cases: cell-based, human
[1] = system: CC promoter activity in E006AA cells; experiment: Cytochrome c (CYCS) promoter reporter (luciferase) assay; conditions: CYCS-Luc transfected cells, 24 hrs
Method: Cytochrome c (CYCS) promoter reporter assay: CYCS promoter reporter clone and empty pLightSwitch vector were purchased from SwitchGear Genomics, Menlo Park, Calif. (Cat #S721763). The reporter construct was prepared by cloning −1000 bp of CYCS promoter from the transcription initiation site. Plasmids were transformed in DH5a E. Coli strain and were isolated using a Zymo Plasmid MidiPrep kit (Zymo research, cat #D4200). The Nrf1 binding site in the p-CYCS-SwichGear-Luc construct was deleted using a QuickChange II XL site-directed mutagenesis kit (Agilent Technologies, Wilmington, Del. Cat #200521). LNCaP and E006AA cells were seeded in 96 well plates and transfected with either pLightSwitch empty vector or CYCS promoter reporter clones using a lipofectamine 3000 transfection kit (ThermoFisher Scientific, Waltham, Mass.). Cells were harvested after 48 hrs. Luciferase activity assay was performed using LightSwitch Assay Reagent (SwitchGear Genomics, Menlo Park, Calif. Cat #LS010).

E006AA cells [2] = experiment: Caspase-3 (DEVDase) activity assay
Method: Caspase-3 (DEVDase) activity assay: PCa cell lysates prepared in NP40 lysis buffer were incubated with DEVD-AFC (caspase-3 substrate) at 37° C. for 90 min in caspase activity assay buffer (50 mM HEPES pH 7.4, 150 mM NaCl, 1% CHAPS, 1 mM EDTA, 1 mM DTT, 50% glycerol). Fluorescence intensity was detected using a Synergy microplate reader at excitation and emission wavelengths of 400 nm and 508 nm, respectively. Arbitrary fluorescence units were normalized with protein content of cell lysates and represented as fold change compared to control groups.

[3] = system: Nrf1 nuclear translocation in E006AA cells; experiment: Immunoblot analysis of Nrf1 in cytosolic and nuclear fractions
Method: Subcellular fractionation for the preparation of cytosolic and nuclear fractions: Cells were seeded on 10 cm cell culture plates for treatment. Cells were harvested via gently scraping. Cells were collected using centrifugation and washed twice with ice cold PBS. Cells were resuspended in cytosolic buffer (10 mM HEPES, pH 7.4; 10 mM KCl; 0.1 mM EDTA; 0.1 mM EGTA) supplemented with freshly added 1× protease inhibitor cocktail and 1 mM DTT. Cells were incubated in cytosolic buffer for 15 min in ice and 10% NP40 was added (12.4 μl 10% NP40 per 200 μl volume of cytosolic buffer) followed by vigorous vortexing for 45 sec. Cell homogenates were centrifuged at 14000 rpm for 2 min. The supernatant was collected in new tubes and stored as the cytosolic fraction. The nuclear pellet was washed 3 times with cytosolic buffer and lysed in nuclear lysis buffer (10 mM HEPES, 500 mM NaCl, 1 mM EDTA, 1 mM EGTA, 1% NP40) to prepare nuclear extract. Immunoblotting: Immunoblotting was performed as described previously. Protein lysates were prepared using a lysis in NP-40 buffer (50 mM Tris-HCl pH 7.4, 150 mM NaCl, 1 mM EDTA, 1 mM EGTA, 1% NP-40) supplemented with protease and phosphatase inhibitor cocktail. Protein content was quantified using a micro BCA protein estimation kit (Thermo Scientific, Waltham, Mass.; Cat #23235). Protein samples were resolved on 4-20% Criterion gels, transferred on nitrocellulose membranes (BioRad, Hercules, Calif.) and subjected to immunoblotting. Membranes were blocked in 5% fat free dry milk (Blotto, Santa Cruz, Dallas, Tex.; Cat #sc-2324) prepared in PBS-T (Tween-20) and incubated overnight in primary antibodies (1:1000 dilution) at 4° C. with continuous shaking. After washing with PBS-T, membranes were incubated in HRP conjugated anti-mouse or anti-rabbit secondary antibody at room temperature for 1 hr. After washing with PBS-T, proteins were detected using Clarity chemiluminescent reagent (BioRad, Hercules, Calif.; Cat #1705061) and X-Ray films (ASI, Fort Lauderdale, Fla.; Cat #XR1570). Membranes were stripped using stripping buffer and probed with HRP conjugated beta-actin antibody to ensure equal loading of proteins.

E006AA cells [4] = experiment: Immunoblot analysis of CC, cleaved PARP and cleaved caspase-3 in whole cell lysates; conditions: for CC expression: combined treatment with DOC (10 nM, 24 hrs), c-Myc I 75 μM, NF-κB I 50 μM, AKT Act 5 μM
Method: (§1) Immunoblotting: Immunoblotting was performed as described previously. Protein lysates were prepared using a lysis in NP-40 buffer (50 mM Tris-HCl pH 7.4, 150 mM NaCl, 1 mM EDTA, 1 mM EGTA, 1% NP-40) supplemented with protease and phosphatase inhibitor cocktail. Protein content was quantified using a micro BCA protein estimation kit (Thermo Scientific, Waltham, Mass.; Cat #23235). Protein samples were resolved on 4-20% Criterion gels, transferred on nitrocellulose membranes (BioRad, Hercules, Calif.) and subjected to immunoblotting. Membranes were blocked in 5% fat free dry milk (Blotto, Santa Cruz, Dallas, Tex.; Cat #sc-2324) prepared in PBS-T (Tween-20) and incubated overnight in primary antibodies (1:1000 dilution) at 4° C. with continuous shaking. After washing with PBS-T, membranes were incubated in HRP conjugated anti-mouse or anti-rabbit secondary antibody at room temperature for 1 hr. After washing with PBS-T, proteins were detected using Clarity chemiluminescent reagent (BioRad, Hercules, Calif.; Cat #1705061) and X-Ray films (ASI, Fort Lauderdale, Fla.; Cat #XR1570). Membranes were stripped using stripping buffer and probed with HRP conjugated beta-actin antibody to ensure equal loading of proteins.

E006AA cells [5] = experiment: Cell death quantification, Trypan blue exclusion assay; conditions: combined treatment with DOC (24 hrs)
Method: Cell viability assay: PCa cells (5×10^4 cells/well) were seeded on 6-well cell culture plates and incubated with DOC (1-20 nM) for 24 hrs. Floating and attached cells were collected using trypsinization. Live and dead cells were counted under a light microscope using a trypan blue exclusion assay.

E006AA cells [6] = experiment: Immunoblot analysis of CC in cytosolic and mitochondrial fractions; conditions: in combination with DOC (24 hrs)
Method: Subcellular fractionation for the preparation of cytosolic and mitochondrial fractions: Cells were seeded on 15 cm cell culture plates followed by treatment with various compounds for the preparation of cytosolic and mitochondrial fractions as described. Cells were harvested via gentle scraping, washed twice with ice cold 1×PBS, and resuspended in homogenization buffer (20 mM HEPES, pH 7.4; 10 mM KCl; 1.5 mM MgCl2; 1 mM EDTA; 1 mM EGTA; 250 mM sucrose) supplemented with freshly added 1× protease inhibitor cocktail and 1 mM DTT. Cells were incubated in homogenization buffer for 30 min in ice and homogenized using a dounce homogenizer (˜25 strokes using pestle A). Cell homogenates were pre-cleared of unbroken cells and debris using centrifugation at 1000 g for 10 min. The supernatant was collected in new tubes and centrifuged at 12000 rpm for 20 min to obtain a mitochondrial pellet, which was washed 3 times with homogenization buffer and lysed in NP40 buffer, and stored as the mitochondrial fraction. The supernatant was ultra-centrifuged to obtain purified cytosol.
as §1

[7] = combined treatment with DOC (24 hrs)

Compound	CYCS promoter activity (luciferase) [1]	caspase-3 activation (E006AA cells [2]; agent alone)	caspase-3 activation (E006AA cells [2]; [7])	translocation of Nrf1 to nucleus ([3]; agent alone)	translocation of Nrf1 to nucleus ([3]; combined with DOC (24 hrs))	PARP cleavage (E006AA cells [4]; agent alone)	CC expression (E006AA cells [4])	PARP cleavage (E006AA cells [4]; [7])	cell death (E006AA cells [5])	CC release (E006AA cells [6])
Cc1ccc(NCCCc2ccccc2)c(N)c1 [NF-κB inhibitor, JSH-23]	increased the CYCS promoter activity	only a modest increase	increased caspase-3 activation	Enhanced translocation of Nrf1 to nucleus	Enhanced translocation of Nrf1 to nucleus	only a modest increase	Increased CC expression	PARP cleavage	enhanced cell death	resulted in CC release
CCc1ccc(/C=C2/SC(=S)NC2=O)cc1 [c-Myc inhibitor, 10058-F4]	increased the CYCS promoter activity	only a modest increase	increased caspase-3 activation	Enhanced translocation of Nrf1 to nucleus	Enhanced translocation of Nrf1 to nucleus	only a modest increase	Increased CC expression	PARP cleavage	enhanced cell death	CC release only in combination treatment; also recorded: resulted in CC release
bisperoxovanadium 5-hydroxipyridine [AKT activator]	increased the CYCS promoter activity	only a modest increase	increased caspase-3 activation	Enhanced translocation of Nrf1 to nucleus	Enhanced translocation of Nrf1 to nucleus	only a modest increase	Increased CC expression	PARP cleavage	enhanced cell death	CC release only in combination treatment; also recorded: resulted in CC release
